Experimental data from ChEMBL document CHEMBL1145498, “A systematic interaction map of validated kinase inhibitors with Ser/Thr kinases” (Proc Natl Acad Sci U S A, 2007).

Molecular target: Calcium/calmodulin-dependent protein kinase type 1G (Homo sapiens) (UniProt Q96NX5)
Sequence (Q96NX5 whole entry): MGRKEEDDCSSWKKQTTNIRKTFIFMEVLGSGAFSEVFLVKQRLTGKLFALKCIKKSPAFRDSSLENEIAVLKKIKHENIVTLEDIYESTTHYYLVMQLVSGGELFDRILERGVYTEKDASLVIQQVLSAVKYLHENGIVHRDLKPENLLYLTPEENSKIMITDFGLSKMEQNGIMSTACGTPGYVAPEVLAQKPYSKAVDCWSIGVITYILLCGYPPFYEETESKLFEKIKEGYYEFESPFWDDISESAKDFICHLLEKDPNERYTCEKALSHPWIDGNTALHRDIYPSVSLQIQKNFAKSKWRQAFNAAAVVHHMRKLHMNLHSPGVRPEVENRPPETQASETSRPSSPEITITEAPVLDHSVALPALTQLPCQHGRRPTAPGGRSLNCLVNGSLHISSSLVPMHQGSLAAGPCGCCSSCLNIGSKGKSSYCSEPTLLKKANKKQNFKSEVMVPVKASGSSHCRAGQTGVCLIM

SMILES | ΔTm [°C]
CN1CCC(Nc2ncc3ncnc(Nc4ccc(F)c(Cl)c4)c3n2)CC1 [FALNIDAMOL] | 0.5
Cc1ccc(NC(=O)c2ccc(CN3CCN(C)CC3)cc2)cc1Nc1nccc(-c2cccnc2)n1 | 0.1

Molecular target: Cyclin-dependent kinase 6 (Homo sapiens) (UniProt Q00534)
Sequence (Q00534 whole entry): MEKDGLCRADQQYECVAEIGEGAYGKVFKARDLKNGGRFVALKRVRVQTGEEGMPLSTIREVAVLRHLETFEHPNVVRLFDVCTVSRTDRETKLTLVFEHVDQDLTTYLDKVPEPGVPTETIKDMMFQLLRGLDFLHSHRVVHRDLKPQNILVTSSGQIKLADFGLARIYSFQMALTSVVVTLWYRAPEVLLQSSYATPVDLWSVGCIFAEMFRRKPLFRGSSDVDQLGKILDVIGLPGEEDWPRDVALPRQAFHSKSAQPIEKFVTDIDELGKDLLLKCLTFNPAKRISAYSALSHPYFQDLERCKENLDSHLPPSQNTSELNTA

SMILES | ΔTm [°C]
CN[C@@H]1CC2O[C@@](C)([C@@H]1OC)n1c3ccccc3c3c4c(c5c6ccccc6n2c5c31)C(=O)NC4 | 1
CN1CCC(Nc2ncc3ncnc(Nc4ccc(F)c(Cl)c4)c3n2)CC1 [FALNIDAMOL] | 1

Further lines, results first:

ΔTm [°C] | SMILES
-0.2 | COc1cc2ncnc(Nc3cccc(O)c3)c2cc1OC
0.2 | Cc1ccc(NC(=O)c2ccc(CN3CCN(C)CC3)cc2)cc1Nc1nccc(-c2cccnc2)n1
2.1 | CCN(CC)CCNC(=O)c1c(C)[nH]c(/C=C2\C(=O)Nc3ccc(F)cc32)c1C

Molecular target: Dual specificity protein kinase CLK3 (Homo sapiens) (UniProt P49761)
Sequence (P49761 whole entry, looked up): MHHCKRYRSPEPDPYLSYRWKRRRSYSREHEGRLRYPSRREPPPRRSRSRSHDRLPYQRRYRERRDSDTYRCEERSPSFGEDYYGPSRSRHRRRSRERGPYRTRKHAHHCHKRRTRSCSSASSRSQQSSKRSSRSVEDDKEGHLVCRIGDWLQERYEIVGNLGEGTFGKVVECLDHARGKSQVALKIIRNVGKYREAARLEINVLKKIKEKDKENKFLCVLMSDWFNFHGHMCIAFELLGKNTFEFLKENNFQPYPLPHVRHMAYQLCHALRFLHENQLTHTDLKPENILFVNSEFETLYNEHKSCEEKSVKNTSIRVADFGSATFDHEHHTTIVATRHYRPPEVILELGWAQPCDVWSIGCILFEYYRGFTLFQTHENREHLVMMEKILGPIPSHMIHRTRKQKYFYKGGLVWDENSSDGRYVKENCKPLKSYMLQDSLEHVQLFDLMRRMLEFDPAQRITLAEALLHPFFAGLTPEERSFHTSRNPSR

SMILES | ΔTm [°C]
COc1cc2ncnc(Nc3cccc(O)c3)c2cc1OC | 0.5
CN[C@@H]1CC2O[C@@](C)([C@@H]1OC)n1c3ccccc3c3c4c(c5c6ccccc6n2c5c31)C(=O)NC4 | 4.2
CN1CCC(Nc2ncc3ncnc(Nc4ccc(F)c(Cl)c4)c3n2)CC1 [FALNIDAMOL] | 2.7
CCN(CC)CCNC(=O)c1c(C)[nH]c(/C=C2\C(=O)Nc3ccc(F)cc32)c1C | 2.1

Molecular target: T1, Mitogen-activated protein kinase kinase kinase 5 (Homo sapiens) (UniProt Q99683)
T1 sequence (whole entry): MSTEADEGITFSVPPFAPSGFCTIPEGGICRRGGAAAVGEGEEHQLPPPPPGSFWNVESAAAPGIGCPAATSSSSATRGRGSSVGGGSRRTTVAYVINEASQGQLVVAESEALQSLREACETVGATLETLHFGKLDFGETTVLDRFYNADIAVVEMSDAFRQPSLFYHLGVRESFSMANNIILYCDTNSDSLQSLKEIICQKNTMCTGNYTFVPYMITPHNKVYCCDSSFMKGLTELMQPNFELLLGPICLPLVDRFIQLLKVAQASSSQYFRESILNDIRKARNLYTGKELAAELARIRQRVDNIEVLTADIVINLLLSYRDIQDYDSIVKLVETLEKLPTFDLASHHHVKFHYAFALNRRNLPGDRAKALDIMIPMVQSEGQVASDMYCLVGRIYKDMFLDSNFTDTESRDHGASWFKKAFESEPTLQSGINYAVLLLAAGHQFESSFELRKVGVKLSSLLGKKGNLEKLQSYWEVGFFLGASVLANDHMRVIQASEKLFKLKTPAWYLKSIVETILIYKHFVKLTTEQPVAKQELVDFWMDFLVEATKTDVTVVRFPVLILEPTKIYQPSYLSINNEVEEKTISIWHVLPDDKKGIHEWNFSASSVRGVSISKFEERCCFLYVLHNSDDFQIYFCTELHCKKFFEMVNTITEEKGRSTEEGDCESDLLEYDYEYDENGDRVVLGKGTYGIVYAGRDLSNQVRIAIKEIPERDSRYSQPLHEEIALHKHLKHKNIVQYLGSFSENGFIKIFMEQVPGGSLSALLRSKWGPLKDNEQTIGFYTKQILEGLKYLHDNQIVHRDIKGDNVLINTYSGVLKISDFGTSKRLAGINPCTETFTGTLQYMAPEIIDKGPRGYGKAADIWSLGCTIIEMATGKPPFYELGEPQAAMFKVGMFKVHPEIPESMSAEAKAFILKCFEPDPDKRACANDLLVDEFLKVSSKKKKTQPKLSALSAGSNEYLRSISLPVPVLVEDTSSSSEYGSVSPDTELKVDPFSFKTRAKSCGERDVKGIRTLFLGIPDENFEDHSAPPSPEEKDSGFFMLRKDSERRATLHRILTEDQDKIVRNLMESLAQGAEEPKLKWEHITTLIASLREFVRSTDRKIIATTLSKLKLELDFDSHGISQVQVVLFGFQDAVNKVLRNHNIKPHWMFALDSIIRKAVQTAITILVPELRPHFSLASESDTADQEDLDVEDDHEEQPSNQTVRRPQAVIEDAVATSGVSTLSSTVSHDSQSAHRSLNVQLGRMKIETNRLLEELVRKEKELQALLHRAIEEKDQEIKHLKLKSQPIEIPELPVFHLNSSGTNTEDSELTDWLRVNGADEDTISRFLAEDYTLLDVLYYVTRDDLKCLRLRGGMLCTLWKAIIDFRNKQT

SMILES | ΔTm [°C]
CN[C@@H]1CC2O[C@@](C)([C@@H]1OC)n1c3ccccc3c3c4c(c5c6ccccc6n2c5c31)C(=O)NC4 | 16.3
CN1CCC(Nc2ncc3ncnc(Nc4ccc(F)c(Cl)c4)c3n2)CC1 [FALNIDAMOL] | 1.3

The remaining lines, values ahead:

ΔTm [°C] | SMILES
1 | COc1cc2ncnc(Nc3cccc(O)c3)c2cc1OC
0 | Cc1ccc(NC(=O)c2ccc(CN3CCN(C)CC3)cc2)cc1Nc1nccc(-c2cccnc2)n1
-0.6 | CCN(CC)CCNC(=O)c1c(C)[nH]c(/C=C2\C(=O)Nc3ccc(F)cc32)c1C

Molecular target: Mitogen-activated protein kinase 6 (Homo sapiens) (UniProt Q16659)
Sequence (Q16659 whole entry): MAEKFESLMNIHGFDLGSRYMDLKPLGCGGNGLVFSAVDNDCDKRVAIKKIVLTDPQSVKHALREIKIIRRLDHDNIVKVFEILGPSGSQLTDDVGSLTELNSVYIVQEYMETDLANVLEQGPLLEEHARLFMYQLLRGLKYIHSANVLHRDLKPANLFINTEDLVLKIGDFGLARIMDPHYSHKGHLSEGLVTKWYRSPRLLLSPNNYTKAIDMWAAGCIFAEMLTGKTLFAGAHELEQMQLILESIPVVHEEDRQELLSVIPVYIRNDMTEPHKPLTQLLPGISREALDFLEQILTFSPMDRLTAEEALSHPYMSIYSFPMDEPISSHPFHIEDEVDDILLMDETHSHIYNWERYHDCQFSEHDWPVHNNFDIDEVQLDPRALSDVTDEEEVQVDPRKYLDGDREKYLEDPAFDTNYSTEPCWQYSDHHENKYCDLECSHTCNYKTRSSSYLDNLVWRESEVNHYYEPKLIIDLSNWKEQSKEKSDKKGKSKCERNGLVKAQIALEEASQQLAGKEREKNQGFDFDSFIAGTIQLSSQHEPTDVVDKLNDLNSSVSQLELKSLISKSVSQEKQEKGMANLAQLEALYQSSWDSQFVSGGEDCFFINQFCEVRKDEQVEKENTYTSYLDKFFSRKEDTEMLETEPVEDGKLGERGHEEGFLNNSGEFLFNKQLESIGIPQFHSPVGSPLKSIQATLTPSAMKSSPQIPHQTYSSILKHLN

SMILES | ΔTm [°C]
COc1cc2ncnc(Nc3cccc(O)c3)c2cc1OC | 0.1
CN[C@@H]1CC2O[C@@](C)([C@@H]1OC)n1c3ccccc3c3c4c(c5c6ccccc6n2c5c31)C(=O)NC4 | 1
CN1CCC(Nc2ncc3ncnc(Nc4ccc(F)c(Cl)c4)c3n2)CC1 [FALNIDAMOL] | 0
Cc1ccc(NC(=O)c2ccc(CN3CCN(C)CC3)cc2)cc1Nc1nccc(-c2cccnc2)n1 | 0.5

Molecular target: T2, Serine/threonine-protein kinase Nek2 (Homo sapiens) (UniProt P51955)
T2 sequence (whole entry): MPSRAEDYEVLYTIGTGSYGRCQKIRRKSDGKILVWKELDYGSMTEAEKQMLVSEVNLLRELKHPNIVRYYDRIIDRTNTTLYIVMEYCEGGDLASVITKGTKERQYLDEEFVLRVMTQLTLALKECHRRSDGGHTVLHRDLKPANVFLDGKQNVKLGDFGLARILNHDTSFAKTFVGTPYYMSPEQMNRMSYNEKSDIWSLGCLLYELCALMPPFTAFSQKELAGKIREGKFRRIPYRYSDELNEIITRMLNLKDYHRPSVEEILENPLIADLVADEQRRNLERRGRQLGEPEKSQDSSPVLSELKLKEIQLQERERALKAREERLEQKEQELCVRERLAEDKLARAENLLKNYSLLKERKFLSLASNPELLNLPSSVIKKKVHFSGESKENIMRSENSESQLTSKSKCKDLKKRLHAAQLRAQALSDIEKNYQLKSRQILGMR

SMILES | ΔTm [°C]
CN[C@@H]1CC2O[C@@](C)([C@@H]1OC)n1c3ccccc3c3c4c(c5c6ccccc6n2c5c31)C(=O)NC4 | 2.8
CN1CCC(Nc2ncc3ncnc(Nc4ccc(F)c(Cl)c4)c3n2)CC1 [FALNIDAMOL] | 2.4

More lines, now with the values ahead:

ΔTm [°C] | SMILES
0.2 | COc1cc2ncnc(Nc3cccc(O)c3)c2cc1OC
-0.8 | Cc1ccc(NC(=O)c2ccc(CN3CCN(C)CC3)cc2)cc1Nc1nccc(-c2cccnc2)n1
-0.4 | CCN(CC)CCNC(=O)c1c(C)[nH]c(/C=C2\C(=O)Nc3ccc(F)cc32)c1C

Molecular target: Cyclin-dependent kinase 16 (Homo sapiens) (UniProt Q00536)
Sequence (Q00536 whole entry): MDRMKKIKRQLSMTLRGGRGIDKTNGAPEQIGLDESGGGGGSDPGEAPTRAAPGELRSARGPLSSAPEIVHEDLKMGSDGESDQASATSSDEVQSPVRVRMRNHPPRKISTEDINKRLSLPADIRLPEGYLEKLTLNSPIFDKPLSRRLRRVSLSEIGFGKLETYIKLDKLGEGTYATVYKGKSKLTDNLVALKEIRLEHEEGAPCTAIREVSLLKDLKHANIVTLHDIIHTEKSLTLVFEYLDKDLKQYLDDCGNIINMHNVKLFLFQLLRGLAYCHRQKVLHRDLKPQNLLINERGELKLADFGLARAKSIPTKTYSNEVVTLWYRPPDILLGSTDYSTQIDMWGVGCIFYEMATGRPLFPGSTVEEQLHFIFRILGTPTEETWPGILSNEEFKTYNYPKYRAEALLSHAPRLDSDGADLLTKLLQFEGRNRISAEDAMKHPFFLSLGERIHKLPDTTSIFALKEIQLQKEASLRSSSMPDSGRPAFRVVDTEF

ΔTm [°C] | SMILES
-0.6 | COc1cc2ncnc(Nc3cccc(O)c3)c2cc1OC
-0.4 | Cc1ccc(NC(=O)c2ccc(CN3CCN(C)CC3)cc2)cc1Nc1nccc(-c2cccnc2)n1

SMILES | ΔTm [°C]
CN1CCC(Nc2ncc3ncnc(Nc4ccc(F)c(Cl)c4)c3n2)CC1 [FALNIDAMOL] | 7.7

Molecular target: Serine/threonine-protein kinase PLK1 (Homo sapiens) (UniProt P53350)
Sequence (P53350 whole entry): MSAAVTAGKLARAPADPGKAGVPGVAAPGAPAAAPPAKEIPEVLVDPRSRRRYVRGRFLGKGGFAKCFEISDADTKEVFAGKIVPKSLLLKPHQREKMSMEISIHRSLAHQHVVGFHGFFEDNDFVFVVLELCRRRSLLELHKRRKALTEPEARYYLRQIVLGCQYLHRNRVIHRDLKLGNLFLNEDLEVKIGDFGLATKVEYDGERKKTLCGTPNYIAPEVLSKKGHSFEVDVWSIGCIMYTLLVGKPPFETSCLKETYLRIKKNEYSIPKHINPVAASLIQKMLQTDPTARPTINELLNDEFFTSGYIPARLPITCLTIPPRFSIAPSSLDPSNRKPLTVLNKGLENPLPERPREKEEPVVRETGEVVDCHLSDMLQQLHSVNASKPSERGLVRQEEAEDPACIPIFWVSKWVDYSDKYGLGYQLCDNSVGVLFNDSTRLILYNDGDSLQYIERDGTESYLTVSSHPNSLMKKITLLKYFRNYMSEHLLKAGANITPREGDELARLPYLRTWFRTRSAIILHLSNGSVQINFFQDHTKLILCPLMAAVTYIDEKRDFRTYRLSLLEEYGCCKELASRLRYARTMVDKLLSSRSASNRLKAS

ΔTm [°C] | SMILES
1 | COc1cc2ncnc(Nc3cccc(O)c3)c2cc1OC
1.6 | Cc1ccc(NC(=O)c2ccc(CN3CCN(C)CC3)cc2)cc1Nc1nccc(-c2cccnc2)n1
1.5 | CCN(CC)CCNC(=O)c1c(C)[nH]c(/C=C2\C(=O)Nc3ccc(F)cc32)c1C

SMILES | ΔTm [°C]
CN1CCC(Nc2ncc3ncnc(Nc4ccc(F)c(Cl)c4)c3n2)CC1 [FALNIDAMOL] | 1.1

Molecular target: Serine/threonine-protein kinase 10 (Homo sapiens) (UniProt O94804)
Sequence (O94804 whole entry, looked up): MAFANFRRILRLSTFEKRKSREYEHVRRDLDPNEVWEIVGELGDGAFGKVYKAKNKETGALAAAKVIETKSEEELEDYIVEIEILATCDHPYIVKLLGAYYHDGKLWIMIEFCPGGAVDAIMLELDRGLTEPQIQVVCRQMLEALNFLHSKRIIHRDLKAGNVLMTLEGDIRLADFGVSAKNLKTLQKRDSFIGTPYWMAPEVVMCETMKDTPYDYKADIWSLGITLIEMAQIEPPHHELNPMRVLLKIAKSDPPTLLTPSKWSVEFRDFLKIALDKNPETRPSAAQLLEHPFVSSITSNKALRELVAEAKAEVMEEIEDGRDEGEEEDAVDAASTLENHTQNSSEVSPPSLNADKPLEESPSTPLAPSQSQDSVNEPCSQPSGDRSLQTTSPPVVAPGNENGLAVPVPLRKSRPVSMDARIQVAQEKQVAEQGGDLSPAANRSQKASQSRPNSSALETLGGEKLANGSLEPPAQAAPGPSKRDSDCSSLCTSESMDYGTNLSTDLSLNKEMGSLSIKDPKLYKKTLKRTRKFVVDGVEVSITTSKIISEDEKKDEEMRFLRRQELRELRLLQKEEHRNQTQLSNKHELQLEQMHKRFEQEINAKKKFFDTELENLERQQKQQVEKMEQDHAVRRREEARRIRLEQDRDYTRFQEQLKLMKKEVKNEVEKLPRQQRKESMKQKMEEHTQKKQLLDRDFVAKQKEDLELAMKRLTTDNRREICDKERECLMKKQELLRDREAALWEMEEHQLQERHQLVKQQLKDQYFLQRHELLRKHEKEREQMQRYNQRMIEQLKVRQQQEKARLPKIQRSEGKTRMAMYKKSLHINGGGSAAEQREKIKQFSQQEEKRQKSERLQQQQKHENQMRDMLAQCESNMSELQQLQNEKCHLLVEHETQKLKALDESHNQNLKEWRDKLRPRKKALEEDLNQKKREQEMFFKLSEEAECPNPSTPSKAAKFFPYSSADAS

ΔTm [°C] | SMILES
4.2 | COc1cc2ncnc(Nc3cccc(O)c3)c2cc1OC
0.8 | Cc1ccc(NC(=O)c2ccc(CN3CCN(C)CC3)cc2)cc1Nc1nccc(-c2cccnc2)n1
11.3 | CCN(CC)CCNC(=O)c1c(C)[nH]c(/C=C2\C(=O)Nc3ccc(F)cc32)c1C

SMILES | ΔTm [°C]
CN[C@@H]1CC2O[C@@](C)([C@@H]1OC)n1c3ccccc3c3c4c(c5c6ccccc6n2c5c31)C(=O)NC4 | 24.8

Molecular target: T3, Serine/threonine-protein kinase 4 (Homo sapiens) (UniProt Q13043)
T3 sequence (whole entry): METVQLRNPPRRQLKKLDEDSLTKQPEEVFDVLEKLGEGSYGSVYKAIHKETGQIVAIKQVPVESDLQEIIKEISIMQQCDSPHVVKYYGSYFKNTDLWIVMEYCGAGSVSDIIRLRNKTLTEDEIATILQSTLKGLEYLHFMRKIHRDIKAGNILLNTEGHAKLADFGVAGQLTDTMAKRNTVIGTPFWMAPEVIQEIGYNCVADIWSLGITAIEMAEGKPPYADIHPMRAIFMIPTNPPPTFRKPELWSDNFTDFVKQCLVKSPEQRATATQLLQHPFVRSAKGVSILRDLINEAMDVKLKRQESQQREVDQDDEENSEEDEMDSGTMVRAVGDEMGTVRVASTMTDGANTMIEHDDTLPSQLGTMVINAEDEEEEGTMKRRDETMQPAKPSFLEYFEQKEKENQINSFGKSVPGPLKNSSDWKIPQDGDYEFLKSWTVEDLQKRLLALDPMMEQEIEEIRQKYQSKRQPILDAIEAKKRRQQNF

ΔTm [°C] | SMILES
1.6 | COc1cc2ncnc(Nc3cccc(O)c3)c2cc1OC
0.2 | Cc1ccc(NC(=O)c2ccc(CN3CCN(C)CC3)cc2)cc1Nc1nccc(-c2cccnc2)n1
0.5 | CCN(CC)CCNC(=O)c1c(C)[nH]c(/C=C2\C(=O)Nc3ccc(F)cc32)c1C

SMILES | ΔTm [°C]
CN[C@@H]1CC2O[C@@](C)([C@@H]1OC)n1c3ccccc3c3c4c(c5c6ccccc6n2c5c31)C(=O)NC4 | 17.9
